The text below walks through data of US20080200475A1 (Pfizer Inc., priority 2005, published 2008).

Usually IC50 stands for the concentration that inhibits the measured activity by half. The term Ki denotes the dissociation constant of the complex between target and ligand, obtained from inhibition or displacement. The term inhibition denotes how much of the control response was suppressed.

The experiment addresses T1, Human P2Y12 (Homo sapiens, UniProt Q9H244).
T1 construct: expressed in transfected cells; host or cells: HEK cells (membrane preparation)
Kind of experiment: [^33P]-2MeS-ADP Binding to Recombinant Human P2Y12 Membranes (Assay 3). Particulars: for % Inhibition, [^33P]-2MeS-ADP Binding to Recombinant Human P2Y12 Membranes (Assay 3) / inhibition at 10 µM: highest concentration tested 10 μM; for IC50 / Ki: membranes of HEK cells transfected with P2Y12, competition with ^33P 2MeS-ADP, multiple lines = multiple runs. How it is done:
3. Human P2Y12 Recombinant Cell Membrane Binding Assay with ^33P 2MeS-ADP.
The ability of a test compound to bind to the P2Y12 receptor was evaluated in a recombinant cell membrane binding assay. In this competitive binding assay, the test compound competed against a radiolabelled agonist for binding to the P2Y12 receptor, expressed on the cell membrane. Inhibition of binding of the labeled material was measured and correlated to the amount and potency of the test compound. Data from this assay are presented in Table F. This binding assay is a modification of the procedure in Takasaki, J. et. al, Mol. Pharmacol., 2001, Vol. 60, pg. 432.
HEK cells were transfected with the pDONR201P2Y12 vector and cultured in MEM with GlutaMAX I, Earle's salts, 25 mM HEPES (Gibco #42360-032) containing 10% dialyzed FBS (Gibco #26400-044), 100 μM nonessential amino acids (Gibco #11140-050), 1 mM sodium pyruvate (Gibco #11360-070), 0.05% geneticin (Gibco #10131-027), 3 μg/mL blasticidin (Fluka brand from Sigma #15205), and 0.5 μg/mL puromycin (Sigma #P-8833).
Confluent cells were washed once with cold DPBS (Gibco #14190-136). Fresh DPBS was added and the cells were scraped and centrifuged at 500×g for 5 minutes at 4° C. The cell pellets were resuspended in TEE buffer (25 mM Tris, 5 mM EDTA, 5 mM EGTA) containing 1 protease inhibitor cocktail tablet (Roche #1 873 580) per 50 mL (called TEE+Complete) and can be flash frozen at this point.
In one embodiment, frozen cell pellets were used to prepare the membranes. In that embodiment, the frozen cell pellets were thawed on ice. In another embodiment, cell pellets may be used without flash freezing before moving on to the next step.
Cell pellets were resuspended in TEE buffer+Complete and homogenized in a glass dounce for 12 strokes. The cell suspension was centrifuged at 500×g for 5 minutes at 4° C. The supernatant was saved and centrifuged at 20,000×g for 20 minutes at 4° C. This supernatant was discarded and the cell pellet resuspended in TEE buffer+Complete and homogenized in a glass dounce for 12 strokes. This suspension was centrifuged at 20,000×g for 20 minutes at 4° C. and the supernatant discarded. The pellet was resuspended in assay buffer (50 mM Tris, 100 mM NaCl, 1 mM EDTA) containing one protease inhibitor cocktail tablet per 50 mL, and can be flash frozen as 1 mL aliquots at this point.
[…] A 1 mM DMSO intermediate stock was made in a dilution plate and from this the seven dilutions were made to 5× the final concentration in assay buffer containing 0.02% BSA.
To a polypropylene assay plate (Costar #3365) the following were added: a) 30 μL of assay buffer containing one protease inhibitor cocktail tablet per 50 mL; b) 30 μL of 1 nM ^33P 2MeS-ADP made in assay buffer containing 0.02% BSA and 12.5 mg/mL ascorbic acid; 30 μL of cold 1.5 μM 2MeS-ADP for the positive control wells, or assay buffer containing 0.02% BSA and 12.5 mg/mL ascorbic acid for the negative control wells, or 5× drug dilution; and 60 μL of 1 ug/well membranes.
The plates were incubated at room temperature for 1 hour. The reaction was stopped using a cell harvester to transfer the reaction mixture onto GF/B UniFilter plates (Perkin Elmer #6005177), and washed three times with wash buffer (50 mM Tris), filtering between each wash. The filter plates were dried for approximately 20 minutes in an oven at 50° C. Back seals were adhered to the filter plates and 25 uL of Microscint 20 scintillation fluid (Perkin Elmer #6013621) were added. The filter plates were sealed, shaken for 30 minutes, and counted on a Top Count. Data were analyzed using a four-parameter curve fit with a fixed minimum and maximum experimentally defined as the average positive and negative controls on each plate, and with a hill slope equal to one. […]

“And” between values parts separate entries of the source, which are not always exact repeats. Equal values may be shown once.

T1 sequence (Q9H244 whole entry): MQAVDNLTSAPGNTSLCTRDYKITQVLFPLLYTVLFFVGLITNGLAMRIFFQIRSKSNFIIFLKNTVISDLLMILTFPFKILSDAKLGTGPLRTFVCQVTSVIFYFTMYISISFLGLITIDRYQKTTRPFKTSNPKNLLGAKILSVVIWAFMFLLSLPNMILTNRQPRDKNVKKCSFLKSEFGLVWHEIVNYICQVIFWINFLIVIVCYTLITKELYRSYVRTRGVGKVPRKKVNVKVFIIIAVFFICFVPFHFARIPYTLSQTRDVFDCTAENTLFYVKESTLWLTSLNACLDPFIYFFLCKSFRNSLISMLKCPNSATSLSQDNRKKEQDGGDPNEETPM

As to `CCOC(=O)CCNC(=O)Nc1nc(N2CCN(C(=O)CC(F)(F)F)CC2)c2cc(CC)sc2n1` [Example 46, Ethyl N-[({6-ethyl-4-[4-(3,3,3-trifluoropropanoyl)piperazin-1-yl]thieno[2,3-d]pyrimidin-2-yl}amino)carbonyl]-beta-alaninate], the “% Inhibition, [^33P]-2MeS-ADP Binding to Recombinant Human P2Y12 Membranes (Assay 3)” value was 46.8% and 71.7%; the IC50 was 6.88 µM and 4.16 µM; the Ki is 3.82 µM and 2.3 µM.
Turning to `CCc1cc2c(N3CCN(C(=O)c4ccc(-c5ccccc5)cc4)CC3)nc(NC(=O)CO)nc2s1` [Example 37, N-{4-[4-(Biphenyl-4-carbonyl)piperazin-1-yl]-6-ethylthieno[2,3-d]pyrimidin-2-yl}-b-hydroxyacetamide], the IC50 was determined as 0.0493 µM and the Ki worked out at 0.024 µM. The inhibition at 1 µM (highest concentration tested 1 μM) came out at 84.5%.
Take `CCc1cc2c(N3CCN(C(=O)c4ccc(-c5ccccc5)cc4)CC3)nc(NC(=O)[C@H](COC(C)(C)C)NC(=O)OCc3ccccc3)nc2s1` [Example 35, Benzyl (1-{4-[4-(biphenyl-4-carbonyl)piperazin-1-yl]-6-ethylthieno[2,3-d]pyrimidin-2-ylcarbamoyl)-2-tert-butoxyethyl)carbamate]: the inhibition at 10 µM turned out to be 53.9%, the 50% inhibitory concentration (IC50) was 2.7 µM and the Ki is 1.31 µM.
`CCc1cc2c(N3CCN(C(=O)c4ccc(-c5ccccc5)cc4)CC3)nc(NC(=O)C3OC(OC)[C@@H]4OC(C)(C)O[C@H]34)nc2s1` (stereo partly drawn) [Example 31, (7R,8S)-6-Methoxy-2,2-dimethyltetrahydrofuro[3,4-d][1,3]dioxole-4-carboxylic acid{4-[4-(biphenyl-4-carbonyl)piperazin-1-yl]-6-ethylthieno[2,3-d]pyrimidin-2-yl}amide]: the “% Inhibition, [^33P]-2MeS-ADP Binding to Recombinant Human P2Y12 Membranes (Assay 3)” value is 72.4%; the inhibition at 10 µM is 76.7%; the IC50 was 0.345 µM and 0.678 µM; the Ki is 0.189 µM and 0.329 µM.
Consider `CCc1cc2c(N3CCN(C(=O)c4ccc(-c5ccccc5)cc4)CC3)nc(NC(=O)c3ccccn3)nc2s1` [Example 33, {4-[4-(Biphenyl-4-carbonyl)piperazin-1-yl]-6-ethylthieno[2,3-d]pyrimidin-2-yl}picolinamide], for which the inhibition at 10 µM is 87.9%, the IC50 is 0.0389 µM and the Ki amounted to 0.021 µM.
For `CCc1cc2c(N3CCN(C(=O)c4ccc(-c5ccccc5)cc4)CC3)nc(NC(=O)CCO)nc2s1` [Example 36, N-{4-[4-(Biphenyl-4-carbonyl)piperazin-1-yl]-6-ethylthieno[2,3-d]pyrimidin-2-yl}-3-hydroxypropionamide], the inhibition at 10 µM was 94%, the half-inhibitory concentration (IC50) is 0.067 µM and the Ki was 0.037 µM.
